Where a name gives a salt, the structure may show the parent alone.

Experiment [1] concerns the target acetylcholinesterase (Homo sapiens, UniProt P22303). The experiment in a line: Acetylcholinesterase Inhibition Assay (photometric method of Ellman et al.). In kind it is biochemical. A general note: In Ellman's method for cholinesterases, released thiocholine reacts with DTNB.
Experiment [2] deals with mice. It is filed as in vivo. The settings on record: SDDA Dose 0.003 mg/kg, s.c., retest after 24 hours. The procedure: This utility can also be ascertained by determining the ability of these compounds to restore cholinergically deficient memory in the Dark Avoidance Assay. In this assay mice are tested for their ability to remember an unpleasant stimulus for a period of 24 hours. A mouse is placed in a chamber that contains a dark compartment; a strong incandescent light drives it to the dark compartment, where an electric shock is administered through metal plates on the floor. The animal is removed from the testing apparatus and tested again, 24 hours later, for the ability to remember the electric shock.
If scopolamine, an anticholinergic that is known to cause memory impairment, is administered before an animal's initial exposure to the test chamber, the animal re-enters the dark compartment shortly after being placed in the test chamber 24 hours later. This effect of scopolamine is blocked by an active test compounds, resulting in a greater interval before reentry into the dark compartment.
The test results are expressed as the percent of a group of animals in which the effect of scopolamine is blocked, as manifested by an increased interval between being placed in the test chamber and reentering the dark compartment. Results of Dark Avoidance Assay for some of the compounds of this invention are presented in Table II along with a result for a reference compounds.

Sequence of acetylcholinesterase (P22303 32-614): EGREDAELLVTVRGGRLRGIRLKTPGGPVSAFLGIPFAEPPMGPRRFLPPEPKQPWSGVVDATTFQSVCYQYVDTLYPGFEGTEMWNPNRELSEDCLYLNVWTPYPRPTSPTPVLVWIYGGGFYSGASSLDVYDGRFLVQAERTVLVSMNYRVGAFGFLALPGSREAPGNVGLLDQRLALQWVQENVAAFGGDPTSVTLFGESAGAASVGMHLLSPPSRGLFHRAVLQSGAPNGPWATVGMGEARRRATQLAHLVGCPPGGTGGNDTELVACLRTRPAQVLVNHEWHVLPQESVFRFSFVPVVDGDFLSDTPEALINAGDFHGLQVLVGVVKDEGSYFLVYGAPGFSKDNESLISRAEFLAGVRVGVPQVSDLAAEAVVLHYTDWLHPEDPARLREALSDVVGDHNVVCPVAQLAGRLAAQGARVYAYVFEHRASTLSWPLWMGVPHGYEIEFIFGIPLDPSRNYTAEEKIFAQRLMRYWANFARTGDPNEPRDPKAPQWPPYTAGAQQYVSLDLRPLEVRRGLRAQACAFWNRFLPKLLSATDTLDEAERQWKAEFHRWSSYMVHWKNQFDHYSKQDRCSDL

Molecule `CN1CC[C@@]23C=C[C@H](O)C[C@@H]2Oc2c(OC(=O)N4CCc5ccccc5C4)ccc(c23)C1` [Example 2, (6-O-Demethyl)-6-O-(1,2,3,4-tetrahydroisoquinolin-2-yl)carbonyl]-galanthamine hydrochloride] had an IC50 in experiment [1] of 0.9 nM. Moreover, the “Percent of Animals with Scopolamine Induced Memory Deficit Reversal” value in experiment [2] was 27% of Animals.

The term IC50 denotes the point on the concentration scale where inhibition reaches its midpoint. Read a high IC50 as lower potency.
